Experiments:
Type in all cases: cell-based, Chinese hamster
[1] = system: GS-CHO cells (Cell line A); test: Growth (viable cell density) of GS-CHO cells in Medium A spiked with putative inhibitor metabolites; conditions: single metabolite
Procedure: GS-CHO cells producing a recombinant antibody were inoculated at low viable cell densities (0.1E6 cells/mL) in various conditions in 5 ml volume, 6-well plate cultures. […] The pH of the Medium A, spiked-in with any one of the nine metabolites or any combination of the nine metabolites, was adjusted to 7 before inoculating the cells (on day 0).
For indolelactate, the stock solution (500 mM) was prepared in DMSO. […] All the conditions were run in duplicates or triplicates. Growth of the cells in above described conditions was monitored for 5 or 6 days.

CHO cell line A = test: Growth of CHO cell line A in Medium A supplemented with 2-methylbutyrate or isobutyrate; conditions: at concentrations higher than 1 mM; monitored 5 days
Procedure: CHO cell line A producing a recombinant antibody were inoculated at low cell densities (0.1E6 cells/mL) in various conditions in triplicates in 6-well plate cultures. The working volume for each well on day 0 was 4 mL. […] The 6-well plates were incubated on a shaking platform in 36.5 C and 5% carbon dioxide. Cell growth in all the conditions was monitored for 5 days.

BCAT1 = test: Western blot of BCAT1 protein after transient miRNA transfection, CHO parental cell line; conditions: CHO parental cell line transient transfections, vs untransfected and negative control miRNA
Procedure: miRNA knockdown works by expressing small RNA sequences (approximately 20-25 bases) that are complimentary to a target gene sequence (e.g. BCAT1). The miRNA binds to the messenger RNA (mRNA) of the target gene forming a region of double stranded RNA. […] Micro RNA knockdown of BCAT1 was performed using the BLOCK-iT Inducible Pol II miR RNAi Expression Vector Kit with EmGFP (Invitrogen). Five miRNA oligonucleotide pairs (complementary top and bottom strand of BCAT1) were designed using an online tool called Block-iT RNAi Designer and the DNA oligonucleotides were prepared by Integrated DNA technologies. The oligonucleotide pairs were annealed and ligated into the pcDNA™6.2-GW/EmGFP-miR vector. The vectors (five of them) were sequence confirmed by WyzerBiosciences (Cambridge, Mass.). The five miRNA vectors or a negative control vector named pcDNA™6.2-GW/EmGFP-miR-neg (provided by Invitrogen with the kit) were transfected into CHO parental cell line or CHO cell line B using the GenePulser XCell eletroporator (BioRad) and were left to recover for two days. After two days, cells were either subjected to selection pressure by antibiotic (blasticidin, 10 ug/mL) for generation of stable cell pools (see Example 24), or cell lysates from the transfected cells (or untransfected cells) were prepared in M-PER protein extraction reagent (Thermo Fisher) supplemented with cOmplete, Mini, EDTA-free Protease Inhibitor Cocktail (Roche). The samples were analyzed by western blot using the Novex NuPage system (Thermo Fisher). The system provides polyacrylamide gels, sample loading buffer, sample reductant, gel running buffer, protein mass standard, nitrocellulose membrane, and chemiluminescence detection reagent. The blots were probed with a rabbit polyclonal anti-BCAT1 antibody (AbCam, Cat#ab110761) or a B-Actin antibody (AbCam, Cat#ab8227). The western blots were imaged using a BioRad ChemiDoc system and analyzed for levels of B-actin and BCAT1.

[2] = at concentrations higher than 0.5 mM or 1 mM

Compound: CCC(O)C(=O)O (stereo not drawn) [2-hydroxybutyric acid]
- effect on growth of cells [1, 2]: Modest inhibition of growth

Compound: O=C(O)C(O)Cc1ccc(O)cc1 (stereo not drawn) [3-(4-hydroxyphenyl)lactate]
- effect on growth of cells [1, 2]: Modest inhibition of growth

Compound: O=CO [Formate]
- effect on growth of cells ([1]; at concentrations 2 mM and beyond): negative effect on growth

Compound: O=C(O)c1c[nH]c2ccccc12 [Indolecarboxylic acid]
- effect on growth of cells ([1]; at concentrations of 1 mM or lower, growth monitored 5 or 6 days): potent negative effect on growth

Compound: O=C(O)C(O)Cc1c[nH]c2ccccc12 (stereo not drawn) [Indolelactate]
- effect on growth of cells ([1]; at concentrations of 3 mM or below, DMSO controls): little or no effect on growth

Compound: O=C(O)[C@H](O)Cc1ccccc1 [L-phenyllactate]
- effect on growth of cells ([1]; at 1 mM concentration): mild effect on growth

Compound: N[C@@H](CCS)C(=O)O [homocysteine]
- effect on growth of cells [1, 2]: Modest inhibition of growth

Compound: CC(C)C(=O)O [isobutyrate]
- cell growth (CHO cell line A): suppressed

Compound: miRNA Seq 2.1a: BCAT1 miRNA sequence TCTGCTGTGAGGACCACTTTG expressed from pcDNA6.2-GW/EmGFP-miR vector (listed as Cricetulus griseus)
- BCAT1 protein level (western blot) (BCAT1): lower level of BCAT1 protein

Compound: miRNA Seq 3.1a: BCAT1 miRNA sequence AGTGGGCACGATGAATCTGTT expressed from pcDNA6.2-GW/EmGFP-miR vector (listed as Cricetulus griseus)
- BCAT1 protein level (western blot) (BCAT1): lower level of BCAT1 protein

Compound: miRNA Seq 4.1a: BCAT1 miRNA sequence CACGATGAATCTGTTCCTCTA expressed from pcDNA6.2-GW/EmGFP-miR vector (listed as Cricetulus griseus)
- BCAT1 protein level (western blot) (BCAT1): lower level of BCAT1 protein

Compound: miRNA Seq 5.1a: BCAT1 miRNA sequence CTTGGGCAAACTGACTGATAT expressed from pcDNA6.2-GW/EmGFP-miR vector (listed as Cricetulus griseus)
- BCAT1 protein level (western blot) (BCAT1): lower level of BCAT1 protein

From patent US11718864B2, “Cells and method of cell culture” (PFIZER INC., priority 2015, dated 2023)
